According to patent US20240252454A1, “COMPOSITION COMPRISING AN INHIBITOR OF MITOCHONDRIAL TRANSCRIPTION” (LEAD DISCOVERY CENTER GMBH, priority 2021, published 2024):

What was measured:
A2780 = test: CellTiter-GLO (CTG) assay, combinatorial matrix; type: cell-based; conditions: for Measured residual activity (%) based on an untreated control group (=100%): A2780, 72 h, cellular ATP content (CellTiter-GLO)
Experimental: To determine the in vitro cellular viability, cellular ATP concentrations were measured using a luminescence-based homogenous assay format, as described here. […] Optimal cell density for each cell line was determined to guarantee linearity. For viability assays with compounds, cells were then seeded at a density of 200 to 1000 per well in 25 μl in 384-well plates (Greiner Bio-One, Frickenhausen, Germany). After overnight incubation at 37° C./5% CO2, 25 nl or 75 nl compounds were added to each sample well by using BIOMEK FXP Laboratory Automation Workstation (Beckman Coulter, USA). Wells with cells and 0.1% or 0.3% DMSO in culture medium were used as positive controls, wells with cells and 10 μM staurosporine (Selleck Chemicals, Huston, USA) in culture medium were used as negative controls. Upon incubation with compounds for 72 h at 37° C./5% CO2 25 μl Cell Titer Glo reagent (Promega, Madison, USA, European Pat. No. 1131441, U.S. Pat. Nos. 7,083,911, 7,452,663 and 7,732,128) 1:2 diluted with cell culture medium) was added to each well to determine cell viability. 384well-plates were placed for 2 min on an orbital microplate shaker and incubated for further 10 min at room temperature resulting in a stabilization of light signal. Luminescence was measured by Envision Plate Reader (Perkin Elmer, USA).
All in vitro cell culture experiments were carried out under near physiological glucose concentrations (5 mM) in at least two independent replicates.

[1] = system: A2780 ovarian carcinoma xenograft; test: in vivo xenograft study with IMT and MEKi in A2780
Experimental: Time course of tumour growth (top) and body weight change (bottom). Transplant with A2780 on day 0, stratification on day six into six groups (n=8). Treatment with vehicle formulation, twice daily 25 mg/kg or 12.5 mg/kg Selumetinib, once daily 100 mg/kg (3S)-1-[(2R)-2-[4-(2-chloro-4-fluoro-phenyl)-2-oxo-chromen-7-yl]oxypropanoyl]piperidine-3-carboxylic acid, or the combination of IMT with 12.5 mg/kg MEKi or 25 mg/kg MEKi as indicated. Error bars indicate the standard deviation of the respective group. * indicates significant differences from the control group (nonparametric Whitnes-U test, p<0.05).
Female NMRI: nu/nu mice were injected subcutaneously with the ovarian carcinoma cell line and, after reaching a palpable tumour volume of 0.2 cm3, were randomized and divided into groups of eight animals each. In addition to a control group, which was administered only with the vehicle formulation, additional groups were given 100 mg/kg (3S)-1-[(2R)-2-[4-(2-chloro-4-fluoro-phenyl)-2-oxo-chromen-7-yl]oxypropanoyl]piperidine-3-carboxylic acid, 12.5 mg/kg AZD6244, 25 mg/kg AZD6244 or the combination of 100 mg/kg (3S)-1-[(2R)-2-[4-(2-chloro-4-fluoro-phenyl)-2-oxo-chromen-7-yl]oxypropanoyl]piperidine-3-carboxylic acid and 12.5 or 25 mg/kg AZD6244 was administered. The substance was administered orally over 21 days, twice daily in 25% PEG400, 57% HPbCD. […]

HEC59 = test: CellTiter-GLO (CTG) assay, combinatorial matrix; type: cell-based; conditions: 30 μM to 15 nM IMT + 30 μM to 40 nM BAY-876
[2] = PK and toxicological studies, plasma and liver concentrations; type: in vivo; conditions: oral combination of the IMT and Venetoclax in 0.5% methyl cellulose in water, NBSGW mice, 4 hours, plasma and liver (FIG. 4)
Experimental: Combinations s of 2-[(3R)-1-[(2R)-2-[4-(2-chloro-4-fluoro-phenyl)-2-oxo-chromen-7-yl]oxypropanoyl]-3-piperidyl]acetic acid and Venetoclax were administered orally in a formulation of 0.5% methyl cellulose in water, before the respective substance concentrations (y-axis) of Venetoclax (left) or 2-[(3R)-1-[(2R)-2-[4-(2-chloro-4-fluoro-phenyl)-2-oxo-chromen-7-yl]oxypropanoyl]-3-piperidyl]acetic acid (right) after 4 hours and extraction from blood plasma or liver tissue were analysed by LC-MS. Error bars indicate the standard deviation around the mean of the multiple measurements.
For this, a vehicle formulation suitable for the oral administration of the combination of Venetoclax and 2-[(3R)-1-[(2R)-2-[4-(2-chloro-4-fluoro-phenyl)-2-oxo-chromen-7-yl]oxypropanoyl]-3-piperidyl]acetic acid was prepared to examine its pharmacokinetic suitability. Since the formulations based on ethanol, PEG-400 and Phosal that have been published for Venetoclax have not proven to be suitable for generating an administrable solution or suspension of IMT and Venetoclax, a simplified formulation of 0.5% methyl cellulose in water was prepared, which was tested initially in PK and toxicological studies in NBSGW mice (FIG. 4). […] On the other hand, doses that could be safely used were established in this mouse model, with which the subsequent studies could be carried out.

## C[C@@H](Oc1ccc2c(-c3ccc(F)cc3Cl)cc(=O)oc2c1)C(=O)N1CCC[C@H](C(=O)O)C1 [(3S)-1-[(2R)-2-[4-(2-chloro-4-fluoro-phenyl)-2-oxo-chromen-7-yl]oxypropanoyl]piperidine-3-carboxylic acid]
A2780; Teriflunomide 0 = IMT alone at the concentration (μM) in c1 of the row, IMT 0.12 µM
  Measured residual activity (%) based on an untreated control group (=100%): 32%
A2780; Teriflunomide 0 = IMT alone at the concentration (μM) in c1 of the row, IMT 15 µM
  Measured residual activity (%) based on an untreated control group (=100%): 28%
A2780; Teriflunomide 0.04 (μM) + IMT (μM) (30-0), IMT 0.12 µM
  Measured residual activity (%) based on an untreated control group (=100%): 31%
A2780; Teriflunomide 0.04 (μM) + IMT (μM) (30-0), IMT 0.47 µM
  Measured residual activity (%) based on an untreated control group (=100%): 28%
A2780; Teriflunomide 0.04 (μM) + IMT (μM) (30-0), IMT 7.5 µM
  Measured residual activity (%) based on an untreated control group (=100%): 27%
A2780; Teriflunomide 0.1 (μM) + IMT at the concentration (μM) in c1 of the row (30-0), IMT 0.23 µM
  Measured residual activity (%) based on an untreated control group (=100%): 29%
A2780; Teriflunomide 0.1 (μM) + IMT at the concentration (μM) in c1 of the row (30-0), IMT 7.5 µM
  Measured residual activity (%) based on an untreated control group (=100%): 22%
A2780; Teriflunomide 0.4 (μM) + IMT at the concentration (μM) in c1 of the row (30-0), IMT 0.06 µM
  Measured residual activity (%) based on an untreated control group (=100%): 32%
A2780; Teriflunomide 0.4 (μM) + IMT at the concentration (μM) in c1 of the row (30-0), IMT 7.5 µM
  Measured residual activity (%) based on an untreated control group (=100%): 22%
A2780; Teriflunomide 0.4 (μM) + IMT at the concentration (μM) in c1 of the row (30-0), IMT 15 µM
  Measured residual activity (%) based on an untreated control group (=100%): 25%
A2780; Teriflunomide 1.1 (μM) + IMT at the concentration (μM) in c1 of the row (30-0), IMT 0.06 µM
  Measured residual activity (%) based on an untreated control group (=100%): 30%
A2780; Teriflunomide 1.1 (μM) + IMT at the concentration (μM) in c1 of the row (30-0), IMT 0.94 µM
  Measured residual activity (%) based on an untreated control group (=100%): 23%
A2780; Teriflunomide 3.3 (μM) + IMT at the concentration (μM) in c1 of the row (30-0), IMT 0.06 µM
  Measured residual activity (%) based on an untreated control group (=100%): 24%
A2780; Teriflunomide 3.3 (μM) + IMT at the concentration (μM) in c1 of the row (30-0), IMT 0.47 µM
  Measured residual activity (%) based on an untreated control group (=100%): 23%
A2780; Teriflunomide 3.3 (μM) + IMT at the concentration (μM) in c1 of the row (30-0), IMT 30 µM
  Measured residual activity (%) based on an untreated control group (=100%): 22%
A2780; Teriflunomide 10 (μM) + IMT at the concentration (μM) in c1 of the row (30-0), IMT 0.12 µM
  Measured residual activity (%) based on an untreated control group (=100%): 23%
A2780; Teriflunomide 10 (μM) + IMT at the concentration (μM) in c1 of the row (30-0), IMT 0.94 µM
  Measured residual activity (%) based on an untreated control group (=100%): 19%
A2780; Teriflunomide 30 (μM) + IMT at the concentration (μM) in c1 of the row (30-0), IMT 0.03 µM
  Measured residual activity (%) based on an untreated control group (=100%): 19%
A2780; Teriflunomide 30 (μM) + IMT at the concentration (μM) in c1 of the row (30-0), IMT 30 µM
  Measured residual activity (%) based on an untreated control group (=100%): 13%
A2780; A2780, CTG matrix, 30 μM to 15 nM IMT + 30 μM to 40 nM BAY-876
  combination of IMT and GLUTi compared to treatment with only the GLUTi BAY-876 alone: advantage of the combination
[1]; 100 mg/kg IMT + 12.5 or 25 mg/kg AZD6244, oral, 21 days, compared to the same amounts of MEK inhibitor alone (FIG. 2)
  final tumour volume after completion of the study: advantage of the combination treatment
[1]; combination administration of IMT and AZD6244 over the course of the study
  tolerability (changes in body weight, acute overt effects): well tolerated
HEC59
  combination of IMT and GLUTi compared to treatment with only the GLUTi BAY-876 alone: advantage of the combination

## CC1(C)CCC(CN2CCN(c3ccc(C(=O)NS(=O)(=O)c4ccc(NCC5CCOCC5)c([N+](=O)[O-])c4)c(Oc4cnc5[nH]ccc5c4)c3)CC2)=C(c2ccc(Cl)cc2)C1 [Venetoclax]
[2]
  PK parameters, in particular the plasma and tissue concentrations: do not significantly influence one another
